Structures are written as SMILES. Several values for one entry are separate records, joined by “and”; a condition that tells them apart may be missing. Equal values may be shown once.

Chain of CDK4 CCND3 (human) (P11802 whole entry, looked up): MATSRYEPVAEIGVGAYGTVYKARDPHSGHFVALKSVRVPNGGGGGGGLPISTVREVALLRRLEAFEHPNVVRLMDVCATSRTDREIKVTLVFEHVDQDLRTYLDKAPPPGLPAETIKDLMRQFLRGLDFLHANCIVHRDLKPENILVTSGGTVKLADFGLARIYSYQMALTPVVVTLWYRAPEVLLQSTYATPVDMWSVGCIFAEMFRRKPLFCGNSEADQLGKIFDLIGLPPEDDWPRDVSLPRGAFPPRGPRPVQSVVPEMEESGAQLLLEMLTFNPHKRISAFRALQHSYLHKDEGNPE
Chain of CDK4 CCND3 (human) (P30281 whole entry, looked up): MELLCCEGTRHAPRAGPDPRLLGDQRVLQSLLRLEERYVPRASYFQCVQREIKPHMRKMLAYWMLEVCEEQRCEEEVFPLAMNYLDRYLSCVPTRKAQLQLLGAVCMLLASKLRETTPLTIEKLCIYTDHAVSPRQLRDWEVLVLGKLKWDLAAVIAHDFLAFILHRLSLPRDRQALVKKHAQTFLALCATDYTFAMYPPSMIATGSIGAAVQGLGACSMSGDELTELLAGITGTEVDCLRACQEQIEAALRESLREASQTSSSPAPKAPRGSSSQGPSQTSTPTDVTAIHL
Chain of PKN1 (human) (Q16512 whole entry, looked up): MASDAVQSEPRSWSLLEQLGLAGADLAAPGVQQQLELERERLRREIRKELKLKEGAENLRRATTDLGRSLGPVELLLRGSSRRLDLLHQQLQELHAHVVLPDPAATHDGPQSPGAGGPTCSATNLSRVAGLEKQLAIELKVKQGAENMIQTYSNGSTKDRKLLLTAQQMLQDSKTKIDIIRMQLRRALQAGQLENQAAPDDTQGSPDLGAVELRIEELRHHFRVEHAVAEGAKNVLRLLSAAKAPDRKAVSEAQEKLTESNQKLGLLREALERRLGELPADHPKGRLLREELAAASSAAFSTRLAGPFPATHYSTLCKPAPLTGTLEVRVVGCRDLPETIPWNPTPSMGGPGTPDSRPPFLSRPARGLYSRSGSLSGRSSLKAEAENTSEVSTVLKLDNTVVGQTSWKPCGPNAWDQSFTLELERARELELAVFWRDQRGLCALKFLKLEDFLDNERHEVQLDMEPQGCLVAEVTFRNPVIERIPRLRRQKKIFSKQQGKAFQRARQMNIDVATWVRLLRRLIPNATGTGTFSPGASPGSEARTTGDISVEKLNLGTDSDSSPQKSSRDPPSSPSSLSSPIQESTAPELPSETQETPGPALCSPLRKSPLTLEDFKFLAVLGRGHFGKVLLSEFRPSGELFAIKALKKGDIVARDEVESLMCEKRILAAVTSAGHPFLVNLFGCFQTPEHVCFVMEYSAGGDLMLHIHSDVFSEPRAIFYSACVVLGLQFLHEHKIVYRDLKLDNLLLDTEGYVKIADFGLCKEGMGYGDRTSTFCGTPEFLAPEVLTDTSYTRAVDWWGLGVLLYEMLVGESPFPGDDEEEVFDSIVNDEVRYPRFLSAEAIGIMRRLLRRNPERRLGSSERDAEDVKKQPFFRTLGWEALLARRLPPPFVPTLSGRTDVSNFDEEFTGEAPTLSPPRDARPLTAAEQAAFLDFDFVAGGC
Chain of TYRO3 (human) (Q06418 whole entry, looked up): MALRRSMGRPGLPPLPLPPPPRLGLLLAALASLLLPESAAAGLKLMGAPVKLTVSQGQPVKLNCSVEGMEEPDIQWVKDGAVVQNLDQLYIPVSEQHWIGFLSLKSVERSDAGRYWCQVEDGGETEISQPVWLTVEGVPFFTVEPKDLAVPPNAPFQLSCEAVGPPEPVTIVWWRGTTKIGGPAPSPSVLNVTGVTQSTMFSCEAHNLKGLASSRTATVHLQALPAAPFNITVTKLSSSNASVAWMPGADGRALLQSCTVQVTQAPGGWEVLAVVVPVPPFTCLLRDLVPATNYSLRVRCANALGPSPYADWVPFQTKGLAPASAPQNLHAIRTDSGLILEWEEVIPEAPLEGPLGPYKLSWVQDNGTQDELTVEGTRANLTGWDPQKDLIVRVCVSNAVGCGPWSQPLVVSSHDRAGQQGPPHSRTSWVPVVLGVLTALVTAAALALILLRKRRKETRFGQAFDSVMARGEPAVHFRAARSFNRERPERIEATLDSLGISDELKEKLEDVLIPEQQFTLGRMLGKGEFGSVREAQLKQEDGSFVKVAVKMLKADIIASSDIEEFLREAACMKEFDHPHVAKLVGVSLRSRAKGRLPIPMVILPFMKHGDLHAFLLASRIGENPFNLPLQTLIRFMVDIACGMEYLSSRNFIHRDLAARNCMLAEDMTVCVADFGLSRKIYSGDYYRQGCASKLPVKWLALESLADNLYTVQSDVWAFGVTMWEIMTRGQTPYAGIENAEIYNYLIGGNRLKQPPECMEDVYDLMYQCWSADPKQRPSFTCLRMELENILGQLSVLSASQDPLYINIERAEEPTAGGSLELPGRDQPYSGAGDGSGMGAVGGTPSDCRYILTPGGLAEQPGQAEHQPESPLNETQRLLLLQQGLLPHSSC

One assay deals with DSTYK (human) (UniProt Q6XUX3). As to the kind of experiment: radiometric filter-binding kinase assay, Kinase HotSpot. The conditions noted are these: compound 0.5 µM; ATP 10 µM.
For `Cn1cnc2cc3c(Nc4cccc(Br)c4)ncnc3cc21`, the residual activity amounted to 97.5%.
On the same count and under the same terms, then `O=C(Nc1cccc(Nc2cc(Nc3cccc(C(F)(F)F)c3)ncn2)c1)C1CC1`, with 102%; and `Cc1nc2cc3nc(-c4cccs4)cnc3cc2n1C`, with 106%.

The target of the next assay is PRKD3 (human) (UniProt O94806). Described as above. The conditions noted are these: compound 0.5 µM; ATP 10 µM.
In the case of `Cn1cnc2cc3c(Nc4cccc(Br)c4)ncnc3cc21`, the residual activity came out at 93.1%.
The same measure, in the same setting: then `O=C(Nc1cccc(Nc2cc(Nc3cccc(C(F)(F)F)c3)ncn2)c1)C1CC1`, with 96.9%.
On the same count and under the same terms, then `Cc1nc2cc3nc(-c4cccs4)cnc3cc2n1C`, with 97.1%.

The next assay concerns the target STK11 (human) (UniProt Q15831). The assay is described as above. The conditions noted are these: compound 0.5 µM; ATP 10 µM.
As to `Cn1cnc2cc3c(Nc4cccc(Br)c4)ncnc3cc21`, the residual activity stood at 91.1%.
Still for that read-out and setting: the value for `O=C(Nc1cccc(Nc2cc(Nc3cccc(C(F)(F)F)c3)ncn2)c1)C1CC1` was 100%.
`Cc1nc2cc3nc(-c4cccs4)cnc3cc2n1C`: the residual activity worked out at 89.6%.

Another assay concerns the target LYN (human) (UniProt P07948). The description is as above. The conditions noted are these: compound 0.5 µM; ATP 10 µM.
For the compound `Cn1cnc2cc3c(Nc4cccc(Br)c4)ncnc3cc21`, the residual activity is 52.4% and 75.8%.
The same measure, in the same setting: the value for `O=C(Nc1cccc(Nc2cc(Nc3cccc(C(F)(F)F)c3)ncn2)c1)C1CC1` was 102% and 99.1%.
Same read-out and setting: the value for `Cc1nc2cc3nc(-c4cccs4)cnc3cc2n1C` was 117% and 97.8%.

The target in another assay is BMX (human) (UniProt P51813). Described as above. The conditions noted are these: compound 0.5 µM; ATP 10 µM.
In the case of `Cn1cnc2cc3c(Nc4cccc(Br)c4)ncnc3cc21`, the residual activity was 96.6%.
With `O=C(Nc1cccc(Nc2cc(Nc3cccc(C(F)(F)F)c3)ncn2)c1)C1CC1`, the residual activity amounted to 93.7%.
In the case of `Cc1nc2cc3nc(-c4cccs4)cnc3cc2n1C`, the residual activity was 117%.

Another assay addresses TYRO3 (human) (UniProt Q06418). Described as above. The conditions noted are these: compound 0.5 µM; ATP 10 µM.
For `Cn1cnc2cc3c(Nc4cccc(Br)c4)ncnc3cc21`, the residual activity came to 94.5%.
Still for that read-out and setting: the value for `O=C(Nc1cccc(Nc2cc(Nc3cccc(C(F)(F)F)c3)ncn2)c1)C1CC1` was 85.4%; that for `Cc1nc2cc3nc(-c4cccs4)cnc3cc2n1C` was 103%.

Another assay addresses ROCK2 (human) (UniProt O75116). Described as above. The conditions noted are these: compound 0.5 µM; ATP 10 µM.
As for `Cn1cnc2cc3c(Nc4cccc(Br)c4)ncnc3cc21`, the residual activity was 88.5%.
On the same count and under the same terms, then `O=C(Nc1cccc(Nc2cc(Nc3cccc(C(F)(F)F)c3)ncn2)c1)C1CC1`, with 99.2%; and `Cc1nc2cc3nc(-c4cccs4)cnc3cc2n1C`, with 107%.

For the next assay, the target named is BTK (human) (UniProt Q06187). The description is as above. The conditions noted are these: compound 0.5 µM; ATP 10 µM.
Chain of BTK (human) (Q06187 whole entry, looked up): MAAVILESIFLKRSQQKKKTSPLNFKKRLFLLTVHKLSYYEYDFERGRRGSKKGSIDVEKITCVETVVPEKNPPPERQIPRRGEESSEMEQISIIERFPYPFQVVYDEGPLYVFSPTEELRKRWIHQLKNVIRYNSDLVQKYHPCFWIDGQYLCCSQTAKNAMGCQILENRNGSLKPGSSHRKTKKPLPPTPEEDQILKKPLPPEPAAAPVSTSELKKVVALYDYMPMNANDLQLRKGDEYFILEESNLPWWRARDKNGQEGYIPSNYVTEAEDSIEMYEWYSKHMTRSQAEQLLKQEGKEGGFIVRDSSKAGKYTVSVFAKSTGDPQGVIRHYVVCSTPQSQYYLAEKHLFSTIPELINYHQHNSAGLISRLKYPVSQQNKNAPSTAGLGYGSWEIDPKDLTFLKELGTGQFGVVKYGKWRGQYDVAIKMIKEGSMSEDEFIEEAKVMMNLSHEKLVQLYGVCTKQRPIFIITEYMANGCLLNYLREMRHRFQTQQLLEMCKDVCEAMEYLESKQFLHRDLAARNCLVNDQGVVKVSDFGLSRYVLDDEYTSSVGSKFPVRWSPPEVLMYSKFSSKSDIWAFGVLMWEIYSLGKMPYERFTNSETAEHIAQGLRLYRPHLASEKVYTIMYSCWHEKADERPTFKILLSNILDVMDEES
Consider `Cn1cnc2cc3c(Nc4cccc(Br)c4)ncnc3cc21`, for which the residual activity turned out to be 86.8%.
On the same count and under the same terms, then `O=C(Nc1cccc(Nc2cc(Nc3cccc(C(F)(F)F)c3)ncn2)c1)C1CC1`, with 101%; and `Cc1nc2cc3nc(-c4cccs4)cnc3cc2n1C`, with 101%.

Another assay addresses CDK4 CCND3 (human) (UniProt P30281+P11802). The description is as above. The following applies: compound 0.5 µM; ATP 10 µM.
On to `Cn1cnc2cc3c(Nc4cccc(Br)c4)ncnc3cc21`, for which the residual activity was 95.9%.
The same measure, in the same setting: the value for `O=C(Nc1cccc(Nc2cc(Nc3cccc(C(F)(F)F)c3)ncn2)c1)C1CC1` was 105%; that for `Cc1nc2cc3nc(-c4cccs4)cnc3cc2n1C` was 101%.

In a further assay the target is NEK7 (human) (UniProt Q8TDX7). The description is as above. The following applies: compound 0.5 µM; ATP 10 µM.
Chain of NEK7 (human) (Q8TDX7 whole entry, looked up): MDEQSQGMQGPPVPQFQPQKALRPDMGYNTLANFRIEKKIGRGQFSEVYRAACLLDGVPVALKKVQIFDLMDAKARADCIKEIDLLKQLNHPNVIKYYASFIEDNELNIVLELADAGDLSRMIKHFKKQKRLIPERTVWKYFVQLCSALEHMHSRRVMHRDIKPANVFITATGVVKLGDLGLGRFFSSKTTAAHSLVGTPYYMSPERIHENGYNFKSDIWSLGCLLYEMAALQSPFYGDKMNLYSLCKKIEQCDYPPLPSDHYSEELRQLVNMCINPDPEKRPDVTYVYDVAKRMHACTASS
As for `Cn1cnc2cc3c(Nc4cccc(Br)c4)ncnc3cc21`, the residual activity came out at 99.4%.
The same measure, in the same setting: the value for `O=C(Nc1cccc(Nc2cc(Nc3cccc(C(F)(F)F)c3)ncn2)c1)C1CC1` was 97.8%; that for `Cc1nc2cc3nc(-c4cccs4)cnc3cc2n1C` was 86.5%.

The target of a further assay is MAP4K2 (human) (UniProt Q12851). The description is as above. The following applies: compound 0.5 µM; ATP 10 µM.
Chain of MAP4K2 (human) (Q12851 whole entry, looked up): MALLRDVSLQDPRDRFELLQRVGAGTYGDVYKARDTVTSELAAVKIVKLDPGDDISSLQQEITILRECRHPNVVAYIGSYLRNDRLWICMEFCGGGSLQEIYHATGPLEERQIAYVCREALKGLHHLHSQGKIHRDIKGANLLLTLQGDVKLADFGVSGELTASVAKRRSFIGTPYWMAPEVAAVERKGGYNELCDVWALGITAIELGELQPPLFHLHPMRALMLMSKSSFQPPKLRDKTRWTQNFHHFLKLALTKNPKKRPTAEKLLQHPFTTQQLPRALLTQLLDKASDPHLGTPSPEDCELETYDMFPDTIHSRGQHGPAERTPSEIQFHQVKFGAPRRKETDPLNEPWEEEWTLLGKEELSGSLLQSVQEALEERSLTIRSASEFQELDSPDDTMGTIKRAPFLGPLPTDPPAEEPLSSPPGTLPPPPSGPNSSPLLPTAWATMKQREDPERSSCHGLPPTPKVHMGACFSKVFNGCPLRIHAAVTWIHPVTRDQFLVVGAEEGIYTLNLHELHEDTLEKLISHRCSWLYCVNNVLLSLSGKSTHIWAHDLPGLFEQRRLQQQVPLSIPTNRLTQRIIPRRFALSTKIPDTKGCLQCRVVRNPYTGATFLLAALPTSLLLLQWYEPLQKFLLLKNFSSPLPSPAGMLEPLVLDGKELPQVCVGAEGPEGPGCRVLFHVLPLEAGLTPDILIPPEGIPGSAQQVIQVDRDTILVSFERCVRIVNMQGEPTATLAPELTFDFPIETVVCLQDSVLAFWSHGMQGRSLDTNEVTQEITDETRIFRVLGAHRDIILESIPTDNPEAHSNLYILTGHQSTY
On to `Cn1cnc2cc3c(Nc4cccc(Br)c4)ncnc3cc21`, for which the residual activity was 90.4%.
On the same count and under the same terms, then `O=C(Nc1cccc(Nc2cc(Nc3cccc(C(F)(F)F)c3)ncn2)c1)C1CC1`, with 116%; and `Cc1nc2cc3nc(-c4cccs4)cnc3cc2n1C`, with 110%.

In another assay the target is CDK2 CCNE1 (human) (UniProt P24941+P24864). The assay is described as above. The conditions noted are these: compound 0.5 µM; ATP 10 µM.
`Cn1cnc2cc3c(Nc4cccc(Br)c4)ncnc3cc21`: the residual activity is 78.2%.
Still for that read-out and setting: the value for `O=C(Nc1cccc(Nc2cc(Nc3cccc(C(F)(F)F)c3)ncn2)c1)C1CC1` was 96.7%; that for `Cc1nc2cc3nc(-c4cccs4)cnc3cc2n1C` was 91.4%.

Another assay has as its target PKN1 (human) (UniProt Q16512). The description is as above. The conditions noted are these: compound 0.5 µM; ATP 10 µM.
`Cn1cnc2cc3c(Nc4cccc(Br)c4)ncnc3cc21`: the residual activity is 89.1%.
Still for that read-out and setting: the value for `O=C(Nc1cccc(Nc2cc(Nc3cccc(C(F)(F)F)c3)ncn2)c1)C1CC1` was 98.9%.
On the same count and under the same terms, then `Cc1nc2cc3nc(-c4cccs4)cnc3cc2n1C`, with 96.5%.

For a further assay, the target named is STK24 (human) (UniProt Q9Y6E0). The assay is described as above. The conditions noted are these: compound 0.5 µM; ATP 10 µM.
On to `Cn1cnc2cc3c(Nc4cccc(Br)c4)ncnc3cc21`, for which the residual activity came to 83.4%.
Still for that read-out and setting: then `O=C(Nc1cccc(Nc2cc(Nc3cccc(C(F)(F)F)c3)ncn2)c1)C1CC1`, with 97.1%.
The same measure, in the same setting: then `Cc1nc2cc3nc(-c4cccs4)cnc3cc2n1C`, with 103%.

Another assay addresses RPS6KA4 KD2 (human) (UniProt O75676). Described as above. The conditions noted are these: compound 0.5 µM; ATP 10 µM.
With `Cn1cnc2cc3c(Nc4cccc(Br)c4)ncnc3cc21`, the residual activity amounted to 96.3%.
Turning to `O=C(Nc1cccc(Nc2cc(Nc3cccc(C(F)(F)F)c3)ncn2)c1)C1CC1`, the residual activity is 100%.
Still for that read-out and setting: the value for `Cc1nc2cc3nc(-c4cccs4)cnc3cc2n1C` was 88.4%.

Another assay addresses EPHA2 (human) (UniProt P29317). The assay is described as above. The following applies: compound 0.5 µM; ATP 10 µM.
`Cn1cnc2cc3c(Nc4cccc(Br)c4)ncnc3cc21`: the residual activity is 81.8%.
On the same count and under the same terms, then `O=C(Nc1cccc(Nc2cc(Nc3cccc(C(F)(F)F)c3)ncn2)c1)C1CC1`, with 104%; and `Cc1nc2cc3nc(-c4cccs4)cnc3cc2n1C`, with 107%.

The target in a further assay is GRK6 (human) (UniProt P43250). The assay is described as above. The conditions noted are these: compound 0.5 µM; ATP 10 µM.
`Cn1cnc2cc3c(Nc4cccc(Br)c4)ncnc3cc21`: the residual activity turned out to be 107%.
Same read-out and setting: then `O=C(Nc1cccc(Nc2cc(Nc3cccc(C(F)(F)F)c3)ncn2)c1)C1CC1`, with 98.3%; and `Cc1nc2cc3nc(-c4cccs4)cnc3cc2n1C`, with 104%.

The target in a further assay is DYRK4 (human) (UniProt Q9NR20). The description is as above. The following applies: compound 0.5 µM; ATP 10 µM.
Chain of DYRK4 (human) (Q9NR20 whole entry, looked up): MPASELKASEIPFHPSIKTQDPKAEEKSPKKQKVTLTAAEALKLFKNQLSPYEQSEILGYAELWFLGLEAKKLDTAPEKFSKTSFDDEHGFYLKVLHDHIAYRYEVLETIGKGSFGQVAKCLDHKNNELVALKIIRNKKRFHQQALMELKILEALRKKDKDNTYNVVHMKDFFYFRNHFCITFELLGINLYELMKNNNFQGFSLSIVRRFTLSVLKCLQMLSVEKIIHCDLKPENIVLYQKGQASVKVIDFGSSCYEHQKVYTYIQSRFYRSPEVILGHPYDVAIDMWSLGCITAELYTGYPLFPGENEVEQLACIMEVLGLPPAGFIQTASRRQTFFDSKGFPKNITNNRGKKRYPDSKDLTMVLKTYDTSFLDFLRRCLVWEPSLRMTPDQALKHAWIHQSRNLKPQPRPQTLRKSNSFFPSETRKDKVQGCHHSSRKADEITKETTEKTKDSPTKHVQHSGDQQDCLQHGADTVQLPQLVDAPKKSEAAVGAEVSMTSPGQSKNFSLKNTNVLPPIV
As to `Cn1cnc2cc3c(Nc4cccc(Br)c4)ncnc3cc21`, the residual activity stood at 97.5%.
The same measure, in the same setting: then `O=C(Nc1cccc(Nc2cc(Nc3cccc(C(F)(F)F)c3)ncn2)c1)C1CC1`, with 98%; and `Cc1nc2cc3nc(-c4cccs4)cnc3cc2n1C`, with 104%.

The target of the next assay is KIT (human) (UniProt P10721). Described as above. The following applies: compound 0.5 µM; ATP 10 µM.
As to `Cn1cnc2cc3c(Nc4cccc(Br)c4)ncnc3cc21`, the residual activity was found to be 78.6%.
The same measure, in the same setting: then `O=C(Nc1cccc(Nc2cc(Nc3cccc(C(F)(F)F)c3)ncn2)c1)C1CC1`, with 99.9%; and `Cc1nc2cc3nc(-c4cccs4)cnc3cc2n1C`, with 40.4%.

The target of the next assay is MAP4K5 (human) (UniProt Q9Y4K4). The assay is described as above. The conditions noted are these: compound 0.5 µM; ATP 10 µM.
As for `Cn1cnc2cc3c(Nc4cccc(Br)c4)ncnc3cc21`, the residual activity came out at 56.1%.
As to `O=C(Nc1cccc(Nc2cc(Nc3cccc(C(F)(F)F)c3)ncn2)c1)C1CC1`, the residual activity amounted to 96.1%.
On the same count and under the same terms, the value for `Cc1nc2cc3nc(-c4cccs4)cnc3cc2n1C` was 94.8%.

A further assay addresses MAP3K7 TAB1 (human) (UniProt O43318+Q15750). The description is as above. The following applies: compound 0.5 µM; ATP 10 µM.
As to `Cn1cnc2cc3c(Nc4cccc(Br)c4)ncnc3cc21`, the residual activity worked out at 98.6%.
In the case of `O=C(Nc1cccc(Nc2cc(Nc3cccc(C(F)(F)F)c3)ncn2)c1)C1CC1`, the residual activity is 99.3%.
Consider `Cc1nc2cc3nc(-c4cccs4)cnc3cc2n1C`, for which the residual activity came to 92.5%.

(Values after the kinase profiling compilation of Christmann-Franck et al. (2016).)
